Patent US8148391B2 (Cephalon, Inc., priority 2006, dated 2012)
Like-named read-outs stand apart in the source and are kept apart here. Values belong to the compound of their own block, whether it stands above or below them.

Key:
[1] = target: T1, c-Met (cytoplasmic domain) (Homo sapiens, UniProt P08581); assay: c-Met Kinase Assay (same methods as for ALK, with modifications); assay type: biochemical
T1 construct: 10 ng/mL c-Met (cytoplasmic domain, Invitrogen Corporation #PV3143); purchased Invitrogen Corporation PV3143
Procedure, shortened: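 Wells were coated with 10 μg/mL phospholipase C-γ substrate in TBS, and reactions were started with 10 ng/mL c-Met cytoplasmic domain and run at 37° C for 15 minutes. Phosphorylated product was detected with Eu-N1-labeled PT66 antibody. IC50 values came from sigmoidal variable-slope fits of percent inhibition versus log compound concentration.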

[2] = target: T2, baculovirus-expressed ALK (Homo sapiens, UniProt Q9UM73); assay: ALK Kinase Assay (ELISA-type, time-resolved fluorescence); assay type: biochemical
T2 construct: host or cells: baculovirus expression system
Procedure, shortened: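 Substrate coating: phospholipase C-γ, 10 μg/mL in TBS. Kinase step: 30 ng/ml ALK, 15 min, 37° C. Detection and analysis: Eu-N1 PT66 antibody, with IC50 fitted as a sigmoidal variable-slope dose-response curve.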

[3] = 1 μM ATP (Km level), read-out: cMet Activity (c-Met Kinase Inhibition, IC50)
[4] = 1 μM ATP (Km level), read-out: ALK Activity (ALK Kinase Inhibition, IC50)
[5] = c-Met kinase inhibition, 1 μM ATP (Km level), read-out: cMet Activity
[6] = ALK kinase inhibition, 1 μM ATP (Km level), read-out: ALK Activity
[7] = 1 μM ATP (Km level), 10 ng/mL c-Met, read-out: cMet Activity (c-Met kinase inhibition, IC50 class)
[8] = 1 μM ATP (Km level), 30 ng/ml ALK, 37° C., 15 minutes, read-out: ALK Activity (ALK kinase inhibition, IC50 class)
[9] = c-Met kinase inhibition, 1 μM ATP, read-out: cMet Activity
[10] = ALK kinase inhibition, 1 μM ATP, read-out: ALK Activity

T1 sequence (P08581 956-1390 limits assumed): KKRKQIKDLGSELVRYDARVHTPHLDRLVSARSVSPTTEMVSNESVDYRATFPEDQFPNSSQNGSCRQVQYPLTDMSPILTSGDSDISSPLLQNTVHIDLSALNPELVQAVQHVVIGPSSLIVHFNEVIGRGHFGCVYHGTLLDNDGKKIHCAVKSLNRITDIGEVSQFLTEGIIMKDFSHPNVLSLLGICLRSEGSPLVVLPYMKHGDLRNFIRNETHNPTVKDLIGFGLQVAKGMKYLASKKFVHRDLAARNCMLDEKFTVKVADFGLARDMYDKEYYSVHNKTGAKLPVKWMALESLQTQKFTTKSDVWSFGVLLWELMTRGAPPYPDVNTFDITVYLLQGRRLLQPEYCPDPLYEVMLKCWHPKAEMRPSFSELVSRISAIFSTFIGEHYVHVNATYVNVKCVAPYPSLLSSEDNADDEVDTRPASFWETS
T2 sequence (Q9UM73 19-1620): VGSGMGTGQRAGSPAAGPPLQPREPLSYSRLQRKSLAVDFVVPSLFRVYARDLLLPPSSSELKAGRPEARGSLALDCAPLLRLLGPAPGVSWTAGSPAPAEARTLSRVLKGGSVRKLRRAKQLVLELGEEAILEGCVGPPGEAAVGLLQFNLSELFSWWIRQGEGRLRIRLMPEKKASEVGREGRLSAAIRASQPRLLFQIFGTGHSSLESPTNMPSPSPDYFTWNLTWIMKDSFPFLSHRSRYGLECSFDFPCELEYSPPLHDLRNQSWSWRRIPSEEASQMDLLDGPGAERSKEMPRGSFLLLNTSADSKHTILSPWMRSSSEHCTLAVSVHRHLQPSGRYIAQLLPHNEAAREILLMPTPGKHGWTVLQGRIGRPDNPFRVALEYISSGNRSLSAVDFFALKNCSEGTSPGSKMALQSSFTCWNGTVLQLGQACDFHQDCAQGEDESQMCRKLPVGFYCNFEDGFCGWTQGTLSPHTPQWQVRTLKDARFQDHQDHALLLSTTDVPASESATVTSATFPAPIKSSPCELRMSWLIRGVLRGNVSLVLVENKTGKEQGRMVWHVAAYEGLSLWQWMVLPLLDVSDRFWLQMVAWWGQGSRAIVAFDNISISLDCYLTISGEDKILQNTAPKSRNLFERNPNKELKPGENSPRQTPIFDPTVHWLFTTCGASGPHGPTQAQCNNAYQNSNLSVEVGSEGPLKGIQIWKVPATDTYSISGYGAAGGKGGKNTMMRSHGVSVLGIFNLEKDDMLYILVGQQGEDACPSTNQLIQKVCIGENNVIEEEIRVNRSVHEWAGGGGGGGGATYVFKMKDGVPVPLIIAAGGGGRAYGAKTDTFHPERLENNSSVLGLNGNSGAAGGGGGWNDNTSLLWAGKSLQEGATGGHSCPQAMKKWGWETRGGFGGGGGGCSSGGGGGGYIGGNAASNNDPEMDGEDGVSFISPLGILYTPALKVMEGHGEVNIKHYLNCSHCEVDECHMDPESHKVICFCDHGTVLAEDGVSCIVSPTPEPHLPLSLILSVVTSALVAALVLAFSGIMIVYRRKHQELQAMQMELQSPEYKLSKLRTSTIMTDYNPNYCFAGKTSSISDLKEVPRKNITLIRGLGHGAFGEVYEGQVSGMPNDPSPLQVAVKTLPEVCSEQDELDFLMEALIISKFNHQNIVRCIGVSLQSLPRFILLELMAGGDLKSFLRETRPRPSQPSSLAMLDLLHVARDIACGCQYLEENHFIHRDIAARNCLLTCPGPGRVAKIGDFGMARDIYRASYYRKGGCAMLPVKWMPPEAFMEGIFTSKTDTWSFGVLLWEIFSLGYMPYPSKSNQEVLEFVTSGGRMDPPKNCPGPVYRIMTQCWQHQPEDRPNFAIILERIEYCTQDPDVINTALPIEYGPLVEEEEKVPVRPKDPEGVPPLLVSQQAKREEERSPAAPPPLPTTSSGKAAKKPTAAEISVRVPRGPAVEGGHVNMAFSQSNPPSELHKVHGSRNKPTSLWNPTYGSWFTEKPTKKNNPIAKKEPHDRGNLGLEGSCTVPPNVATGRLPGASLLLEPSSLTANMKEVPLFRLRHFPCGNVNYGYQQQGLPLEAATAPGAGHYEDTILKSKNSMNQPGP

IC50 [1, 3]: 100 to 1000 nM
IC50 [2, 4]: < 100 nM
Compound: CCN1CCN(CC)c2cc(Nc3ncc(Cl)c(Nc4ccccc4OCC#N)n3)ccc2C1 [Example 731, {2-[5-Chloro-2-(1,4-diethyl-2,3,4,5-tetrahydro-1H-benzo[e][1,4]diazepin-8-ylamino)-pyrimidin-4-ylamino]-phenoxy}-acetonitrile]

Compound: N-{(1R,2R)-2-[2-(12-sec-Butyl-12-aza-tricyclo[7.2.1.0*2,7*]dodeca-2(7),3,5-trien-4-ylamino)-5-chloro-pyrimidin-4-ylamino]-cyclohexyl}-methanesulfonamide [Example 85]
IC50 [1, 5]: 100 to 1000 nM
IC50 [2, 6]: < 100 nM

IC50 [1, 5]: < 100 nM
IC50 [2, 6]: < 100 nM
Compound: CNC(=O)c1ccccc1Nc1nc(Nc2ccc3c(c2)N(C)CCN(CCO)C3)ncc1Cl [Example 485, 2-{5-Chloro-2-[4-(2-hydroxy-ethyl)-1-methyl-2,3,4,5-tetrahydro-1H-benzo[e][1,4]diazepin-8-ylamino]-pyrimidin-4-ylamino}-N-methyl-benzamide]

IC50 [1, 3]: 100 to 1000 nM
IC50 [2, 4]: 100 to 1000 nM
Compound: O=C1CCCc2cc(Nc3ncc(Cl)c(Nc4ccccc4-c4nc(C(F)(F)F)c[nH]4)n3)ccc2N1 [Example 1012, 7-{5-Chloro-4-[2-(4-trifluoromethyl-1H-imidazol-2-yl)-phenylamino]-pyrimidin-2-ylamino}-1,3,4,5-tetrahydro-benzo[b]azepin-2-one]

IC50 [1, 3]: > 10000 nM
IC50 [2, 4]: 100 to 1000 nM
Compound: COc1c(Nc2ncc(Cl)c(Nc3ccccc3-n3cccn3)n2)ccc2c1CCC(NCC(F)(F)F)CC2 (stereo not drawn) [Example 690, 5-Chloro-N*2*-[1-methoxy-7-(2,2,2-trifluoro-ethylamino)-6,7,8,9-tetrahydro-5H-benzocyclohepten-2-yl]-N*4*-(2-pyrazol-1-yl-phenyl)-pyrimidine-2,4-diamine]

IC50 [1, 7]: > 10000 nM
IC50 [2, 8]: 1000 to 10000 nM
Compound: COc1ccc2c(c1Nc1ncc(Cl)c(N[C@@H]3CCCC[C@H]3NS(C)(=O)=O)n1)CCC(NCC(F)F)CC2 (single isomer, unassigned) [Example 1075]

IC50 [1, 9]: 100 to 1000 nM
IC50 [2, 10]: 100 to 1000 nM
Compound: C#CCNC(=O)c1cccc(F)c1Nc1nc(Nc2ccc3c(c2)OCC(O)(CO)CN3CC)ncc1Cl (stereo not drawn) [Example 1735, 2-[5-Chloro-2-(9-ethyl-7-hydroxy-7-hydroxymethyl-6,7,8,9-tetrahydro-5-oxa-9-aza-benzocyclohepten-3-ylamino)-pyrimidin-4-ylamino]-3-fluoro-N-prop-2-ynyl-benzamide]

IC50 [1, 3]: > 10000 nM
IC50 [2, 4]: 100 to 1000 nM
Compound: COc1cc2c(cc1Nc1ncc(Cl)c(Nc3cc(Cl)ccc3OC)n1)CCN(CC(F)F)CC2 [Example 768, 5-Chloro-N*4*-(5-chloro-2-methoxy-phenyl)-N*2*-[3-(2,2-difluoro-ethyl)-8-methoxy-2,3,4,5-tetrahydro-1H-benzo[d]azepin-7-yl]-pyrimidine-2,4-diamine]

IC50 [1, 5]: > 10000 nM
IC50 [2, 6]: < 100 nM
Compound: CCN1C(=O)C(C)(C)CCc2c1ccc(Nc1ncc(Cl)c(N[C@@H]3CCCC[C@H]3NS(C)(=O)=O)n1)c2OC [Example 143, N-{(1R,2R)-2-[5-Chloro-2-(1-ethyl-6-methoxy-3,3-dimethyl-2-oxo-2,3,4,5-tetrahydro-1H-benzo[b]azepin-7-ylamino)-pyrimidin-4-ylamino]-cyclohexyl}-methanesulfonamide]

IC50 [1, 7]: 100 to 1000 nM
IC50 [2, 8]: 100 to 1000 nM
Compound: O=C1CCCc2ccc(Nc3ncc(Cl)c(Nc4c(F)cccc4OC4CCOC4)n3)cc2N1 (stereo not drawn) [Example 1273, 8-{5-Chloro-4-[2-fluoro-6-(tetrahydro-furan-3-yloxy)-phenylamino]-pyrimidin-2-ylamino}-1,3,4,5-tetrahydro-1-benzazepin-2-one]

IC50 [1, 3]: 1000 to 10000 nM
IC50 [2, 4]: 100 to 1000 nM
Compound: CC1(C)CCC(=O)Nc2ccc(Nc3ncc(Cl)c(Nc4cccc(-c5cccnc5)c4)n3)cc21 [Example 993, 7-[5-Chloro-4-(3-pyridin-3-yl-phenylamino)-pyrimidin-2-ylamino]-5,5-dimethyl-1,3,4,5-tetrahydro-benzo[b]azepin-2-one]

IC50 [1, 3]: < 100 nM
IC50 [2, 4]: < 100 nM
Compound: NC(=O)[C@@H]1[C@H](Nc2nc(Nc3ccc4c(c3)CCC(N3CCOCC3)CC4)ncc2Cl)[C@H]2C=C[C@@H]1C2 (stereo partly drawn) [Example 671, (1S,2S,3R,4R)-3-[5-Chloro-2-(7-morpholin-4-yl-6,7,8,9-tetrahydro-5H-benzocyclohepten-2-ylamino)-pyrimidin-4-ylamino]-bicyclo[2.2.1]hept-5-ene-2-carboxylic acid amide]

IC50 [1, 5]: 1000 to 10000 nM
IC50 [2, 6]: < 100 nM
Compound: CN1CCN(S(C)(=O)=O)Cc2ccc(Nc3ncc(Cl)c(N[C@@H]4CCCC[C@H]4NS(C)(=O)=O)n3)cc21 [Example 477, N-{(1R,2R)-2-[5-Chloro-2-(4-methanesulfonyl-1-methyl-2,3,4,5-tetrahydro-1H-benzo[e][1,4]diazepin-8-ylamino)-pyrimidin-4-ylamino]-cyclohexyl}-methanesulfonamide]

IC50 [1, 3]: 100 to 1000 nM
IC50 [2, 4]: < 100 nM
Compound: CCN1CCc2ccc(Nc3ncc(C(F)(F)F)c(Nc4ccc(N5CCOCC5)cc4OC)n3)cc2CC1 [Example 924, N(2)-(3-Ethyl-2,3,4,5-tetrahydro-1H-benzo[d]azepin-7-yl)-N(4)-(2-methoxy-4-morpholin-4-yl-phenyl)-5-trifluoromethylpyrimidine-2,4-diamine]

IC50 [1, 3]: > 10000 nM
IC50 [2, 4]: < 100 nM
Compound: CCN1CC(=O)N(C)c2cc(Nc3ncc(Cl)c(N[C@H]4[C@@H](C(N)=O)[C@@H]5C=C[C@H]4C5)n3)c(OC)cc2C1 [Example 741]

IC50 [1, 5]: 1000 to 10000 nM
IC50 [2, 6]: < 100 nM
Compound: CC1(C)CCC(=O)Nc2ccc(Nc3ncc(Cl)c(Nc4ccccc4-c4ncc[nH]4)n3)cc21 [Example 220, 7-{5-Chloro-4-[2-(1H-imidazol-2-yl)-phenylamino]-pyrimidin-2-ylamino}-5,5-dimethyl-1,3,4,5-tetrahydro-benzo[b]azepin-2-one]

IC50 [1, 9]: 100 to 1000 nM
IC50 [2, 10]: < 100 nM
Compound: COc1cc2c(cc1Nc1ncc(Cl)c(Nc3ccccc3S(=O)(=O)N3CC[C@H](O)C3)n1)CCN(C[C@H](C)O)CC2 [Example 1555, (S)-1-(2-{5-Chloro-2-[3-((S)-2-hydroxy-propyl)-8-methoxy-2,3,4,5-tetrahydro-1H-3-benzazepin-7-ylamino]-pyrimidin-4-ylamino}-benzenesulfonyl)-pyrrolidin-3-ol]

IC50 [1, 7]: < 100 nM
IC50 [2, 8]: 100 to 1000 nM
Compound: C#CCNC(=O)c1cccc(F)c1Nc1nc(Nc2ccc3c(c2)OCCCN3C(=O)OC)ncc1Cl [Example 1430, 3-[5-Chloro-4-(2-fluoro-6-prop-2-ynylcarbamoyl-phenylamino)-pyrimidin-2-ylamino]-7,8-dihydro-6H-5-oxa-9-aza-benzocycloheptene-9-carboxylic acid methyl ester]

Compound: CNC(=O)c1sccc1Nc1nc(Nc2ccc3c(c2)N(C(C)=O)CCCO3)ncc1Cl [Example 1702, 3-[2-(9-Acetyl-6,7,8,9-tetrahydro-5-oxa-9-aza-benzocyclohepten-2-ylamino)-5-chloro-pyrimidin-4-ylamino]-thiophene-2-carboxylic acid methylamide]
IC50 ([1]; cMet Activity, c-Met kinase inhibition, 1 μM ATP): < 100 nM
IC50 [2, 10]: 1000 to 10000 nM

IC50 [1, 9]: < 100 nM
IC50 [2, 10]: 100 to 1000 nM
Compound: C#CCNC(=O)c1cccc(F)c1Nc1nc(Nc2ccc3c(c2)N(C(=O)CN)CCCC3(C)C)ncc1Cl [Example 1619, 2-{2-[1-(2-Amino-acetyl)-5,5-dimethyl-2,3,4,5-tetrahydro-1H-benzo[b]azepin-8-ylamino]-5-chloro-pyrimidin-4-ylamino}-3-fluoro-N-prop-2-ynyl-benzamide]

IC50 [1, 3]: > 10000 nM
IC50 [2, 4]: < 100 nM
Compound: COc1cc2c(cc1Nc1ncc(Cl)c(Nc3ccc(N4CCN(C)CC4)c(C)c3)n1)CCN(CC(=O)N(C)C)CC2 [Example 792, 2-(7-{5-Chloro-4-[3-methyl-4-(4-methyl-piperazin-1-yl)-phenylamino]-pyrimidin-2-ylamino}-8-methoxy-1,2,4,5-tetrahydro-benzo[d]azepin-3-yl)-N,N-dimethyl-acetamide]

IC50 [1, 9]: < 100 nM
IC50 [2, 10]: < 100 nM
Compound: CNC(=O)c1cccc(Cl)c1Nc1nc(Nc2ccc3c(c2)C(C)(C)NC(=O)CC3)ncc1Cl [Example 1834, 3-Chloro-2-(5-chloro-2-(1,1-dimethyl-3-oxo-2,3,4,5-tetrahydro-1H-benzo[c]azepin-8-ylamino)pyrimidin-4-ylamino)-N-methylbenzamide]

IC50 [1, 9]: < 100 nM
IC50 [2, 10]: 1000 to 10000 nM
Compound: CNC(=O)c1ccccc1N(C)c1nc(Nc2ccc3c(c2)CN(C)C(=O)CC3)ncc1F [Example 1800, 2-{[5-Fluoro-2-(2-methyl-3-oxo-2,3,4,5-tetrahydro-1H-benzo[c]azepin-8-ylamino)-pyrimidin-4-yl]-methyl-amino}-N-methyl-benzamide]

Compound: CNC(=O)c1ccccc1Nc1nc(Nc2ccc3c(c2)C2CCC3CN(S(C)(=O)=O)C2)ncc1Cl (stereo not drawn) [Example 278, 2-[5-Chloro-2-(10-methanesulfonyl-10-aza-tricyclo[6.3.2.0*2,7*]trideca-2,4,6-trien-4-ylamino)-pyrimidin-4-ylamino]-N-methyl-benzamide]
IC50 [1, 5]: < 100 nM
IC50 [2, 6]: < 100 nM
